target: T1, FLT3 (Homo sapiens, UniProt P36888); assay: Inhibition of FLT3, 33P-ATP kinase assay with filter-binding detection; type: biochemical; settings: 33P-ATP 10 uM, 2 hours at room temperature, filter-binding method
T1 sequence (P36888 27-993): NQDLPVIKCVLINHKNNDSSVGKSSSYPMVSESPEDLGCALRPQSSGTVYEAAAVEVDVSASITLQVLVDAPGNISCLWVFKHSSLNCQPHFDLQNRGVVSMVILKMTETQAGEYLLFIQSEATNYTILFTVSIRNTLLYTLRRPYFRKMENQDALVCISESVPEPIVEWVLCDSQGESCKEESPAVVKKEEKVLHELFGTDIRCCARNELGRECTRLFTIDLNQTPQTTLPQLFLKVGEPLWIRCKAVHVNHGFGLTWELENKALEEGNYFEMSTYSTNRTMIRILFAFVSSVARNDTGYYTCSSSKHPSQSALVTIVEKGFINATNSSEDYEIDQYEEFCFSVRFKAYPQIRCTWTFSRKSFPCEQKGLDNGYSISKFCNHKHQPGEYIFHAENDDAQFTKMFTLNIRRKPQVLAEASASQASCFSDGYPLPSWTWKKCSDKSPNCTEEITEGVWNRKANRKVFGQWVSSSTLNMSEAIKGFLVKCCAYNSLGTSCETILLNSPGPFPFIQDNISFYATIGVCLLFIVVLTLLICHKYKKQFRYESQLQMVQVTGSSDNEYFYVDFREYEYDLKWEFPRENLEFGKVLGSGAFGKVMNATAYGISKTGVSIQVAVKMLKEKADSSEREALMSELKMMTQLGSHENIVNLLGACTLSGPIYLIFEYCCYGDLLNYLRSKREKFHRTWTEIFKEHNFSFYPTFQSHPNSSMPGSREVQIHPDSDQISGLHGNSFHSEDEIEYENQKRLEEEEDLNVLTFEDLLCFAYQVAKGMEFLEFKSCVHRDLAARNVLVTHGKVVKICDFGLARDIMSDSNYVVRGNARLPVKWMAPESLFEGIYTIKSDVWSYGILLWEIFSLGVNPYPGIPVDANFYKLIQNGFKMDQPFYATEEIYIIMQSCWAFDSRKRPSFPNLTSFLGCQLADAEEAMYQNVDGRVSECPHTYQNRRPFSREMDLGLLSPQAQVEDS
Description: Prepare indicated substrate in freshly prepared Base Reaction Buffer (20 mM Hepes (pH 7.5), 10 mM MgCl2, 1 mM EGTA, 0.02% Brij35, 0.02 mg/ml BSA, 0.1 mM Na3VO4, 2 mM DTT, 1% DMSO). Deliver any required cofactors to the substrate solution above. Deliver indicated kinase into the substrate solution and gently mix. The testing compounds in DMSO was added into the kinase reaction mixture by Acoustic technology (Echo550; nanoliter range) and incubated for 20 minutes at room temperature. Deliver 33P-ATP (specific activity […]) into the reaction mixture to initiate the reaction. Incubate kinase reaction for 2 hours at room temperature. Reactions are spotted onto P81 ion exchange paper. Detect kinase activity by filter-binding method.
Inhibition of FLT3 with 4-Quinolone Derivatives

Question: Which IC50 does the source give for `NCCNc1nc2ccccc2c2c(=O)c3cccc(F)c3sc12` [compound 7240, 6-(2-aminoethylamino)-8-fluoro-12H-thiochromeno[2,3-c]quinolin-12-one] here?
Answer: Its IC50 is under 0.051 µM.

Question: For `O=c1c2cc(Cl)ccc2sc2c(OCCO)nc3ccccc3c12` [compound 7718, 10-chloro-6-(2-hydroxyethoxy)-12H-thiochromeno[2,3-c]quinolin-12-one], which IC50 is on record?
Answer: Its IC50 is over 1 µM.

Question: For `Nc1nc2ccccc2c2c(=O)c3c(Cl)cccc3sc12` [compound 7724, 6-Amino-11-chloro-12H-thiochromeno[2,3-c]quinolin-12-one], which IC50 is on record?
Answer: Its IC50 is over 1 µM.

Question: How did the IC50 turn out when `O=c1c2cc(F)cc(F)c2sc2c(NCCCNCCO)nc3ccccc3c12` [compound 7253, 8,10-difluoro-6-(3-(2-hydroxyethylamino)propylamino)-12H-thiochromeno[2,3-c]quinolin-12-one] was run?
Answer: The IC50 was over 1 µM.

Question: With `NCCCNc1nc2ccc(F)cc2c2c(=O)c3cc(F)ccc3sc12` [compound 7402, 6-(3-aminopropylamino)-2,10-difluoro-12H-thiochromeno[2,3-c]quinolin-12-one] as the compound, how does the IC50 read?
Answer: Its IC50 is over 1 µM.

Question: For `COc1ccc2nc(NCCCNCCO)c3sc4ccc(F)cc4c(=O)c3c2c1` [compound 7407, 10-fluoro-6-(3-(2-hydroxyethylamino)propylamino)-2-methoxy-12H-thiochromeno[2,3-c]quinolin-12-one], which IC50 is on record?
Answer: The IC50 was over 1 µM.

Question: `CN(C)CCCNc1nc2ccccc2c2c(=O)c3cc(F)ccc3sc12` [compound 7732, 6-(3-(dimethylamino)propylamino)-10-fluoro-12H-thiochromeno[2,3-c]quinolin-12-one] was tested. Which IC50 did it give?
Answer: Its IC50 is over 1 µM.

Question: With `Nc1nc2ccccc2c2c(=O)c3cccc(Cl)c3sc12` [compound 7713, 6-Amino-8-chloro-12H-thiochromeno[2,3-c]quinolin-12-one] as the compound, how does the IC50 read?
Answer: Its IC50 is over 1 µM.

Question: For `COc1ccc2sc3c(NCCO)nc4ccccc4c3c(=O)c2c1` [compound 7733, 6-(2-Hydroxyethylamino)-10-methoxy-12H-thiochromeno[2,3-c]quinolin-12-one], which IC50 is on record?
Answer: The IC50 was over 1 µM.

Question: For `O=c1c2cc(F)cc(Cl)c2sc2c(NCCCNCCO)nc3ccccc3c12` [compound 7226, 8-chloro-10-fluoro-6-(3-(2-hydroxyethylamino)propylamino)-12H-thiochromeno[2,3-c]quinolin-12-one], which IC50 is on record?
Answer: Its IC50 is over 1 µM.

Question: With `NCCCNc1nc2ccccc2c2c(=O)c3cc(F)ccc3sc12` [compound 7707, 6-(3-aminopropylamino)-10-fluoro-12H-thiochromeno[2,3-c]quinolin-12-one] as the compound, how does the IC50 read?
Answer: The IC50 was under 0.051 µM.

Question: How did the IC50 turn out when `NCCCNc1nc2ccccc2c2c(=O)c3cc(Cl)ccc3sc12` [compound 7704, 6-(3-aminopropylamino)-10-chloro-12H-thiochromeno[2,3-c]quinolin-12-one] was run?
Answer: Its IC50 is 0.501 to 1 µM.

Question: For `O=c1c2cc(F)ccc2sc2c(NCCN3CCCC3)nc3ccccc3c12` [compound 7755, 10-fluoro-6-(2-(pyrrolidin-1-yl)ethylamino)-12H-thiochromeno[2,3-c]quinolin-12-one], which IC50 is on record?
Answer: Its IC50 is 0.501 to 1 µM.

Question: With `NCCNc1nc2ccccc2c2c(=O)c3cc(Cl)ccc3sc12` [compound 7767, 6-(2-aminoethylamino)-10-cholor-12H-thiochromeno[2,3-c]quinolin-12-one] as the compound, how does the IC50 read?
Answer: Its IC50 is under 0.051 µM.

Question: For `NCCNc1nc2ccc(F)cc2c2c(=O)c3cc(F)ccc3sc12` [compound 7422, 6-(2-aminoethylamino)-2,10-difluoro-12H-thiochromeno[2,3-c]quinolin-12-one], which IC50 is on record?
Answer: The IC50 was over 1 µM.

Question: Which IC50 does the source give for `COc1ccc2sc3c(NCCCO)nc4ccccc4c3c(=O)c2c1` [compound 7742, 10-methoxy-6-(3-hydroxypropylamino)-12H-thiochromeno[2,3-c]quinolin-12-one] here?
Answer: The IC50 was over 1 µM.

Question: `CCN1CCN(c2nc3ccccc3c3c(=O)c4cc(F)ccc4sc23)CC1` [compound 7757, 6-(4-ethylpiperazin-1-yl)-10-fluoro-12H-thiochromeno[2,3-c]quinolin-12-one] was tested. Which IC50 did it give?
Answer: Its IC50 is 0.201 to 0.5 µM.

Question: `O=c1c2cc(F)ccc2sc2c(NCCCN3CCCC3)nc3ccccc3c12` [compound 7753, 10-fluoro-6-(3-(pyrrolidin-1-yl)propylamino)-12H-thiochromeno[2,3-c]quinolin-12-one] was tested. Which IC50 did it give?
Answer: Its IC50 is over 1 µM.

Question: Which IC50 does the source give for `O=c1c2cc(F)ccc2sc2c(N3CCNCC3)nc3ccc(F)cc3c12` [compound 7425, 2,10-difluoro-6-(piperazin-1-yl)-12H-thiochromeno[2,3-c]quinolin-12-one] here?
Answer: The IC50 was over 1 µM.

Question: `COCCCNc1nc2ccccc2c2c(=O)c3cc(OC)ccc3sc12` [compound 7743, 10-methoxy-6-(3-methoxypropylamino)-12H-thiochromeno[2,3-c]quinolin-12-one] was tested. Which IC50 did it give?
Answer: The IC50 was over 1 µM.

Question: Which IC50 does the source give for `COCCNc1nc2ccccc2c2c(=O)c3cc(F)ccc3sc12` [compound 7745, 10-fluoro-6-(2-methoxyethylamino)-12H-thiochromeno[2,3-c]quinolin-12-one] here?
Answer: Its IC50 is over 1 µM.

Question: How did the IC50 turn out when `CCNc1nc2ccccc2c2c(=O)c3cccc(F)c3sc12` [compound 7241, 6-(ethylamino)-8-fluoro-12H-thiochromeno[2,3-c]quinolin-12-one] was run?
Answer: Its IC50 is over 1 µM.

Question: For `NCCCNc1nc2ccccc2c2c(=O)c3cc(F)cc(Cl)c3sc12` [compound 7213, 6-(3-aminopropylamino)-8-chloro-10-fluoro-12H-thiochromeno[2,3-c]quinolin-12-one], which IC50 is on record?
Answer: The IC50 was over 1 µM.

Question: For `Cc1ccc2sc3c(NCCN)nc4ccccc4c3c(=O)c2c1` [compound 7231, 6-(2-aminoethylamino)-10-methyl-12H-thiochromeno[2,3-c]quinolin-12-one], which IC50 is on record?
Answer: Its IC50 is under 0.051 µM.

Question: With `CCNc1nc2ccccc2c2c(=O)c3cccc(OC)c3sc12` [compound 7245, 6-(ethylamino)-8-methoxy-12H-thiochromeno[2,3-c]quinolin-12-one] as the compound, how does the IC50 read?
Answer: The IC50 was over 1 µM.

Question: `O=c1c2cc(F)ccc2sc2c(NCCNc3ccccn3)nc3ccccc3c12` [compound 7765, 10-fluoro-6-((2-(pyridin-2-ylamino)ethyl)amino)-12H-thiochromeno[2,3-c]quinolin-12-one] was tested. Which IC50 did it give?
Answer: Its IC50 is over 1 µM.

Question: `O=c1c2cc(F)ccc2sc2c(OCCO)nc3ccccc3c12` [compound 7728, 10-fluoro-6-(2-hydroxyethoxy)-12H-thiochromeno[2,3-c]quinolin-12-one] was tested. Which IC50 did it give?
Answer: Its IC50 is over 1 µM.

Question: `O=c1c2cc(Cl)ccc2sc2c(NCCO)nc3ccccc3c12` [compound 7717, 10-chloro-6-(2-hydroxyethylamino)-12H-thiochromeno[2,3-c]quinolin-12-one] was tested. Which IC50 did it give?
Answer: The IC50 was over 1 µM.

Question: `O=c1c2cc(F)ccc2sc2c(N3CCN(Cc4ccccc4)CC3)nc3ccccc3c12` [compound 7758, 6-(4-benzylpiperazin-1-yl)-10-fluoro-12H-thiochromeno[2,3-c]quinolin-12-one] was tested. Which IC50 did it give?
Answer: Its IC50 is over 1 µM.

Question: `CN1CCN(c2nc3ccccc3c3c(=O)c4cc(F)ccc4sc23)CC1` [compound 7740, 10-fluoro-6-(4-methylpiperazin-1-yl)-12H-thiochromeno[2,3-c]quinolin-12-one] was tested. Which IC50 did it give?
Answer: The IC50 was 0.501 to 1 µM.

Question: For `COc1cccc2c(=O)c3c(sc12)c(NCCCNCCO)nc1ccccc13` [compound 7225, 6-(3-(2-hydroxyethylamino)propylamino)-8-methoxy-12H-thiochromeno[2,3-c]quinolin-12-one], which IC50 is on record?
Answer: The IC50 was 0.201 to 0.5 µM.

Question: `NCCCNc1nc2ccccc2c2c(=O)c3cccc(Cl)c3sc12` [compound 7715, 6-(3-aminopropylamino)-8-chloro-12H-thiochromeno[2,3-c]quinolin-12-one] was tested. Which IC50 did it give?
Answer: Its IC50 is under 0.051 µM.

Question: With `NCCCNc1nc2ccc(Cl)cc2c2c(=O)c3cc(F)ccc3sc12` [compound 7403, 6-((3-aminopropyl)amino)-2-chloro-10-fluoro-12H-thiochromeno[2,3-c]quinolin-12-one] as the compound, how does the IC50 read?
Answer: The IC50 was over 1 µM.

Question: How did the IC50 turn out when `NCCNc1nc2ccccc2c2c(=O)c3cc(F)cc(F)c3sc12` [compound 7254, 6-(2-aminoethylamino)-8,10-difluoro-12H-thiochromeno[2,3-c]quinolin-12-one] was run?
Answer: Its IC50 is 0.051 to 0.2 µM.

Question: `NCCNc1nc2ccccc2c2c(=O)c3cc(F)ccc3sc12` [compound 7754, 6-(2-aminoethylamino)-10-fluoro-12H-thiochromeno[2,3-c]quinolin-12-one] was tested. Which IC50 did it give?
Answer: Its IC50 is under 0.051 µM.

Question: `CCNc1nc2ccccc2c2c(=O)c3cc(Cl)ccc3sc12` [compound 7736, 10-chloro-6-(ethylamino)-12H-thiochromeno[2,3-c]quinolin-12-one] was tested. Which IC50 did it give?
Answer: The IC50 was over 1 µM.

Question: For `O=c1c2cc(F)ccc2sc2c(NCc3cccnc3)nc3ccccc3c12` [compound 7748, 10-fluoro-6-(pyridin-3-ylmethylamino)-12H-thiochromeno[2,3-c]quinolin-12-one], which IC50 is on record?
Answer: The IC50 was over 1 µM.

— patent US11332476B2, “Fms-like tyrosine kinase inhibitors” (3SM BIOTRON INC., priority 2018, dated 2022)
